Source: patent US10085449B2, “N-[1-((6-chloropyridin-3-yl)methyl)pyridin-2(1H)-ylidene]-2,2,2- trifluoroacetamide for control of agricultural/horticultural pests” (priority 2010, dated 2018)
Where two headings read alike, the source gives them in different places.

Tests used:
Format in all cases: in vivo
common cutworm = assay: whole plant or invertebrate; settings: for Insecticidal effects (mortality), common cutworm third-instar larvae: foliar application
Procedure, shortened: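 Cabbage leaf discs (5.0 cm) sprayed with compound at a set concentration in 50% acetone/water with 0.05% Tween 20, air dried, then infested with third-instar larvae. Held at 25° C., 16 h light/8 h dark; dead and live larvae counted after 3 days, two replicates, mortality (%) = dead/(live+dead)×100.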

small brown planthopper [1] = assay: whole plant or invertebrate; settings: Laodelphax striatellus, foliar
Procedure: (§1) Rice seedlings grown in pots were subjected to the foliar application of solutions of the inventive compounds at a predetermined concentration prepared to 50% acetone/water (containing 0.05% Tween 20). The treated seedlings were air dried, following which second-instar larvae were released onto the seedlings. The seedlings and larvae were then held in an incubation chamber at 25° C. (16-hour period of light, 8-hour dark period). Three days after released, the numbers of live and dead insects were counted, and the mortality was calculated from the following formula. This was a two-replication test. Mortality (%)=[number of dead insects/(number of live insects+number of dead insects)]×100

green rice leafhopper = assay: Green rice leafhopper control test (foliar application); settings: Nephotettix cincticeps, 96 h
Procedure: as §1, with “Four” for “Three”

brown-winged green bug = assay: Brown-winged green bug control test; settings: 50 ppm foliar application on young apples, adults, 6 days after release
Procedure: Young apples that had been collected in the field were sprayed with solutions of the inventive compounds at a predetermined concentration prepared to 50% acetone/water (containing 0.05% Tween 20). The treated fruits were air-dried, placed in plastic cups and two adult brown-winged green bugs were released into each cup. Following release of the insects, the fruits and insects were held in an incubation chamber at 25° C. (16-hour period of light, 8-hour dark period). Six days after released, the numbers of live and dead insects were counted, and the mortality was calculated from the following formula. Mortality (%)=[number of dead insects/(number of live insects+number of dead insects)]×100

house fly = assay: House fly control test (local application); design: dose or concentration left out as unconfirmed
Procedure: The inventive compounds prepared to a predetermined concentration in acetone were applied in an amount of 1 μL (per insect) to the backs of adult female flies raised indoors. Following chemical treatment, the flies were transferred to plastic cups, with five flies being placed in each cup, and held in an incubation chamber at 25° C. (16-hour period of light, 8-hour dark period). Twenty-four hours after treatment, the state of knockdown among the flies was observed, and the knockdown rate was calculated from the following formula. The test was carried out as two replications. Knockdown rate (%)=[number of knocked down insects/(number of live insects+number of knocked down insects)]×100

small brown planthopper [2] = assay: whole plant or invertebrate; settings: Laodelphax striatellus, 72 h
Procedure, shortened: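 Rice seedlings in pots soil-drenched with compound at a set concentration in 10% acetone/water; ten second-instar larvae released per seedling 3 days later. Held at 25° C. (16 h light/8 h dark) and scored live/dead 3 days after release. Mortality (%) = dead/(live+dead)×100; two replications.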

[3] = test system: brown rice planthopper having a low susceptibility to insecticides; design: key to Brown rice planthopper, Kumamoto low susceptibility (rice soil drenching), effect: mortality %, dead/(live+dead) ×100; settings: for Mortality: all the lines (susceptible line, field-collected lines I and II); for Insecticidal effects (mortality), brown rice planthopper second-instar larvae: soil drenching treatment
[4] = read-out: Insecticidal effects (mortality), small brown planthopper second-instar larvae
[5] = soil, read-out: Insecticidal effects (mortality), small brown planthopper second-instar larvae

`O=C(N=c1ccccn1Cc1ccc(Cl)nc1)C(F)(F)F` [Compound 212, N-[1-((6-chloropyridin-3-yl)methyl)pyridin-2(1H)-ylidene]-2,2,2-trifluoroacetamide] was tested, and the “Insecticidal effects (mortality), common cutworm third-instar larvae” value (common cutworm; 100 ppm) was 30, the “Insecticidal effects (mortality), common cutworm third-instar larvae” value (common cutworm; 500 ppm) was 100 and the mortality at 500 ppm (common cutworm; foliar, 72 h) was ≥ 80%. It also gave a mortality at 0.313 ppm (small brown planthopper [1]; [4]) of 75%, a mortality at 1.25 ppm (small brown planthopper [1]; [4]) of 100% and a mortality at 5 ppm (small brown planthopper [1]; [4]) of 100%. For the same compound, the mortality at 100 ppm (small brown planthopper [1]; in Oryza sativa, 72 h) was ≥ 80%, the mortality at 100 ppm (green rice leafhopper) was ≥ 80% and the Mortality (brown-winged green bug) was “at least 80%”. For the same compound, the “Insecticidal effects (mortality), adult houseflies” value (house fly) was 100, the pest or weed control at 0.002 mg/pot (small brown planthopper [2]; rice soil drenching, 0.002 mg/pot (Table 13), read-out: Small brown planthopper (rice soil drenching), effect) was 85% and the pest or weed control at 0.005 mg/pot (small brown planthopper [2]; rice soil drenching, 0.005 mg/pot (Table 13), read-out: Small brown planthopper (rice soil drenching), effect) was 95%. It also gave a pest or weed control at 0.01 mg/pot (small brown planthopper [2]; rice soil drenching, 0.01 mg/pot (Table 13), read-out: Small brown planthopper (rice soil drenching), effect) of 100%, a pest or weed control at 0.05 mg/pot (small brown planthopper [2]; rice soil drenching, 0.05 mg/pot (Table 13), read-out: Small brown planthopper (rice soil drenching), effect) of 100% and a mortality at 0.005 mg/seedling (small brown planthopper [2]; soil) of 95%. For the same compound, the mortality at 0.05 mg/seedling (small brown planthopper [2]; soil) was ≥ 80%, the mortality at 0.002 mg/pot (small brown planthopper [2]; [5]) was 85% and the mortality at 0.005 mg/pot (small brown planthopper [2]; [5]) was 95%. The mortality at 0.01 mg/pot (small brown planthopper [2]; [5]) was 100%, the mortality at 0.05 mg/pot (small brown planthopper [2]; [5]) was 100% and the Mortality ([3]; 0.005 mg/seedling soil drenching) was “at least 90%”. For the same compound, the Mortality ([3]; 0.05 mg/seedling soil drenching) was 100%, the “Brown rice planthopper, Kumamoto low susceptibility (rice soil drenching), effect” value ([3]; 0.005 mg/pot) was 90 and the “Brown rice planthopper, Kumamoto low susceptibility (rice soil drenching), effect” value ([3]; 0.05 mg/pot) was 100. The “Insecticidal effects (mortality), brown rice planthopper second-instar larvae” value ([3]; 0.02 mg/pot) was 100 and the “Insecticidal effects (mortality), brown rice planthopper second-instar larvae” value ([3]; 0.05 mg/pot) was 100.
